Tests used:
[1] = system: U87MG cells; assay: Cellular assay, inhibition of 2-HG production in U87MG cells; type: cell-based
How it was run: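 HT1080 or U87MG cells (U87MG kept with 500 ug/mL G418) seeded at 5000 cells/well and treated with compound at 0.2% final DMSO. Incubated 48 h at 37 °C. 2-HG inhibition determined by LC-MS. Viability read by CellTiter-Glo luminescence at 72 h post-dose.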

[2] = target: IDH1 R132H (Homo sapiens (Human), UniProt O75874, R132H); assay: In vitro NADPH depletion assay for IDH1m R132H inhibitors; type: biochemical; details: IDH1 R132H enzyme, read-out: IDH R132H IC50
Chain of IDH1 R132H (O75874 whole entry R132H): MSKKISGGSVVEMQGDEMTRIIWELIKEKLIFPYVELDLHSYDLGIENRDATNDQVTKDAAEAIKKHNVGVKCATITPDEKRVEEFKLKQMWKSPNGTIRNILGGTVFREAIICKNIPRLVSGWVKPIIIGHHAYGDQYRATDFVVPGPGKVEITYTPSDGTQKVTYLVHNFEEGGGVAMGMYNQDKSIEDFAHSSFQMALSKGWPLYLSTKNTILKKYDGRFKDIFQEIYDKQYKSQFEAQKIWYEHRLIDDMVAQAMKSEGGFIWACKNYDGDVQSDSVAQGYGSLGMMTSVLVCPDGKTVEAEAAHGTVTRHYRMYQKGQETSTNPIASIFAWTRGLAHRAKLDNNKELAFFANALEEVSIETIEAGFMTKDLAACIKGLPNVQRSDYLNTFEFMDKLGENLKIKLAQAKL
Description: (§1) A test compound is prepared as 10 mM stock in DMSO and diluted to 50× final concentration in DMSO, for a 50 μl reaction mixture. IDH enzyme activity converting alpha-ketoglutarate to 2-hydroxyglutaric acid is measured using a NADPH depletion assay. In the assay the remaining cofactor is measured at the end of the reaction with the addition of a catalytic excess of diaphorase and resazurin, to generate a fluorescent signal in proportion to the amount of NADPH remaining. […] The reaction is started with the addition of 10 μl of Substrate Mix ([…], 5 mM alpha-ketoglutarate, in Assay Buffer) and the mixture is incubated for 90 minutes at room temperature.

[3] = target: IDH1 R132C (Homo sapiens (Human), UniProt O75874, R132C); assay: In vitro NADPH depletion assay for IDH1m R132C inhibitors; type: biochemical; details: IDH1 R132C enzyme, read-out: IDH R132C IC50
Chain of IDH1 R132C (O75874 whole entry R132C): as the sequence (O75874 whole entry R132H) above, with H132C counted along it
Description: as §1
The concentration of NADPH and alpha-ketoglutarate in the Substrate Buffer is 20 μM and 1 mM, respectively.

[4] = system: HT1080 cells; assay: Cellular assay, inhibition of 2-HG production in HT1080 cells; type: cell-based; details: Homo sapiens, HT-1080, 48 h
Description: Cells (HT1080 or U87MG) are grown in T125 flasks in DMEM containing 10% FBS, 1× penicillin/streptomycin and 500 ug/mL G418 (present in U87MG cells only). They are harvested by trypsin and seeded into 96 well white bottom plates at a density of 5000 cell/well in 100 ul/well in DMEM with 10% FBS. […] Cells are incubated overnight at 37° C. in 5% CO2. The next day test compounds are made up at 2× the final concentration and 100 ul are added to each cell well. The final concentration of DMSO is 0.2% and the DMSO control wells are plated in row G. The plates are then placed in the incubator for 48 hours. […] The cell plate is placed back in the incubator for another 24 hours. At 72 hours post compound addition, 10 mL/plate of Promega Cell Titer Glo reagent is thawed and mixed. The cell plate is removed from the incubator and allowed to equilibrate to room temperature. Then 100 ul of Promega Cell Titer Glo reagent is added to each well of media. The cell plate is then placed on an orbital shaker for 10 minutes and then allowed to sit at room temperature for 20 minutes. The plate is then read for luminescence with an integration time of 500 ms.

[5] = inhibition of 2-HG production, U87MG cells, 48 hours

Compound	IC50 [1, 5] [µM]	IC50 [2] [µM]	IC50 [3] [µM]	IC50 [4] [µM]	IC50 ([1]; Homo sapiens, U-87 MG, 48 h) [µM]
(S)—N—((S)-1-(2-Chlorophenyl)-2-(3,3-difluorocyclobutylamino)-2-oxoethyl)-1-(3-cyano-phenyl)-N-(1H-indazol-7-yl)-5-oxopyrrolidine-2-carboxamide [Compound 186]	< 0.1	< 0.1	< 0.1		
Cc1cccc(N2C(=O)CC[C@H]2C(=O)N(c2cccc(F)c2)[C@H](C(=O)NC2CC(F)(F)C2)c2ccccc2Cl)n1 [Compound 28]				< 0.1	
O=C(NC1CC(F)(F)C1)[C@H](c1ccccc1Cl)N(C(=O)[C@@H]1CCC(=O)N1c1cc(C(F)(F)F)ccn1)c1cccc(F)c1 [Compound 40]				0.1 to 0.5	0.1 to 0.5
COc1cccnc1N1C(=O)CC[C@H]1C(=O)N(c1cccc(F)c1)[C@H](C(=O)NC1CC(F)(F)C1)c1ccccc1Cl [Compound 17]				0.5 to 1	1 to 2
(S)—N—((S)-1-(2-Chlorophenyl)-2-((3,3-difluorocyclobutyl)amino)-2-oxoethyl)-1-(4-cyanopyridin-2-yl)-N-(1H-indazol-6-yl)-5-oxopyrrolidine-2-carboxamide [Compound 205]	< 0.1	< 0.1	< 0.1		
(S)-tert-butyl 3-(((S)-1-(2-chlorophenyl)-2-((3,3-difluorocyclobutyl) amino)-2-oxoethyl)(3,5-difluorophenyl)carbamoyl)-5-oxopiperazine-1-carboxylate [Compound 97]	< 0.1	< 0.1	< 0.1		
O=C(NC1CC(F)(F)C1)[C@H](c1ccccc1Cl)N(C(=O)[C@@H]1CCC(=O)N1c1ccncn1)c1cccc(F)c1 [Compound 22]		0.1 to 0.5	0.1 to 0.5		
(S)—N—((S)-1-(2-Chlorophenyl)-2-(3,3-difluorocyclobutylamino)-2-oxoethyl)-N-(3-cyano-5-fluorophenyl)-3-(3-cyanophenyl)-2-oxooxazolidine-4-carboxamide [Compound 134]	< 0.1	< 0.1	< 0.1		
N#Cc1ccnc(N2C(=O)CC[C@H]2C(=O)N(c2cccc(F)c2)[C@H](C(=O)NC2CC(F)(F)C2)c2c(Cl)cccc2Cl)c1 (single isomer, unassigned) [Compound 63]				< 0.1	< 0.1
O=C(NC1CC(F)(F)C1)[C@H](c1ccccc1Cl)N(C(=O)[C@@H]1CCC(=O)N1c1ccc(Cl)cn1)c1cccc(F)c1 [Compound 48]				0.1 to 0.5	0.1 to 0.5
O=C(NC1CC(F)C1)[C@H](c1ccccc1Cl)N(C(=O)[C@@H]1CCC(=O)N1c1ncccn1)c1cccc(F)c1 (stereo partly shown) [Compound 49]				0.1 to 0.5	0.1 to 0.5
Cc1cccnc1N1C(=O)CC[C@H]1C(=O)N(c1cccc(F)c1)[C@H](C(=O)NC1CC(F)(F)C1)c1ccccc1Cl [Compound 15]				0.1 to 0.5	0.1 to 0.5
O=C(NC1CC(F)(F)C1)[C@H](c1ccccc1Cl)N(C(=O)[C@@H]1CCC(=O)N1c1ccccn1)c1cccc(F)c1 [Compound 5]		< 0.1	< 0.1		0.1 to 0.5
O=C(NC1CC(F)(F)C1)[C@H](c1ccccc1Cl)N(C(=O)[C@@H]1CCC(=O)N1c1ccc(F)cn1)c1cccc(F)c1 [Compound 29]					< 0.1
N#Cc1ccnc(N2C(=O)CCC[C@H]2C(=O)N(c2cccc(F)c2)[C@H](C(=O)NC2CCC(F)(F)CC2)c2ccccc2Cl)c1 [Compound 75, (S)—N—((S)-1-(2-Chlorophenyl)-2-((4,4-difluorocyclohexyl)amino)-2-oxoethyl)-1-(4-cyano-pyridin-2-yl)-N-(3-fluorophenyl)-6-oxopiperidine-2-carboxamide]					< 0.1
Cc1ccc(N2C(=O)CC[C@H]2C(=O)N(c2cccc(F)c2)[C@H](C(=O)NC2CC(F)(F)C2)c2ccccc2Cl)nc1 [Compound 21]					0.1 to 0.5

Other lines, results leading:

IC50 [1, 5] [µM]	IC50 [2] [µM]	IC50 [3] [µM]	IC50 [4] [µM]	IC50 ([1]; Homo sapiens, U-87 MG, 48 h) [µM]	Compound
< 0.1	< 0.1	< 0.1			(S)—N—((S)-1-(2-Chlorophenyl)-2-((4,4-difluorocyclohexyl)amino)-2-oxoethyl)-3-(4-cyano-pyridin-2-yl)-N-(3-fluorophenyl)-2-oxooxazolidine-4-carboxamide [Compound 78]
	< 0.1			< 0.1	CC(C)(C)c1cccc(N(C(=O)[C@@H]2CCC(=O)N2c2nccc(C#N)n2)[C@H](C(=O)NC2CC(F)(F)C2)c2ccccc2Cl)c1 [Compound 165, (S)—N-(3-(tert-Butyl)phenyl)-N—((S)-1-(2-chlorophenyl)-2-((3,3-difluorocyclobutyl)amino)-2-oxoethyl)-1-(4-cyanopyrimidin-2-yl)-5-oxopyrrolidine-2-carboxamide]
			0.1 to 0.5	< 0.1	N#Cc1cccc(N(C(=O)[C@@H]2CCC(=O)N2c2nccc(C#N)n2)[C@H](C(=O)NC2CCC(F)(F)CC2)c2ccccc2Cl)c1 [Compound 178, (S)—N—((S)-1-(2-Chlorophenyl)-2-((4,4-difluorocyclohexyl)amino)-2-oxoethyl)-N-(3-cyanophenyl)-1-(4-cyanopyrimidin-2-yl)-5-oxopyrrolidine-2-carboxamide]
< 0.1	< 0.1	< 0.1			(2S)—N-(1-(2-Chlorophenyl)-2-((4,4-difluorocyclohexyl)amino)-2-oxoethyl)-1-(4-cyanopyridin-2-yl)-N-(3-fluoro-5-(methylsulfonyl)phenyl)-5-oxopyrrolidine-2-carboxamide [Compound 105]
	< 0.1	< 0.1		< 0.1	N#Cc1ccnc(N2C(=O)CC[C@H]2C(=O)N(c2cc(F)cc(F)c2)[C@H](C(=O)NC2CC(F)(F)C2)c2ccccc2F)c1 [Compound 208, (S)-1-(4-Cyanopyridin-2-yl)-N—((S)-2-(3,3-difluorocyclobutylamino)-1-(2-fluorphenyl)-2-oxoethyl)-N-(3,5-difluorophenyl)-5-oxopyrrolidine-2-carboxamide]
0.1 to 0.5	< 0.1	< 0.1			(S)—N—((S)-1-(2-Chlorophenyl)-2-((3,3-difluorocyclobutyl)amino)-2-oxoethyl)-1-(4-cyanopyrimidin-2-yl)-N-(3-fluoro-5-(methylsulfonyl)phenyl)-5-oxopyrrolidine-2-carboxamide [Compound 109]
< 0.1	< 0.1	< 0.1			(2S)—N-(1-(2-Chlorophenyl)-2-((3,3-difluorocyclobutyl)amino)-2-oxoethyl)-1-(4-cyanopyridin-2-yl)-N-(3-fluoro-5-(methylsulfonyl)phenyl)-5-oxopyrrolidine-2-carboxamide [Compound 110]
< 0.1	< 0.1	< 0.1			N#Cc1cccc(N2C(=O)OC[C@H]2C(=O)N(c2cccc3cn[nH]c23)[C@H](C(=O)NC2CCC(F)(F)CC2)c2ccccc2Cl)c1 [Compound 142, (S)—N—((S)-1-(2-Chlorophenyl)-2-(4,4-difluorocyclohexylamino)-2-oxoethyl)-3-(3-cyanophenyl)-N-(1H-indazol-7-yl)-2-oxooxazolidine-4-carboxamide]
				< 0.1	N#Cc1ccnc(N2C(=O)CC[C@H]2C(=O)N(c2cccc(F)c2)[C@H](C(=O)NC2CC(F)(F)C2)c2ccccc2Cl)c1F [Compound 82, (S)—N—((S)-1-(2-Chlorophenyl)-2-((3,3-difluorocyclobutyl)amino)-2-oxoethyl)-1-(4-cyano-3-fluoropyridin-2-yl)-N-(3-fluorophenyl)-5-oxopyrrolidine-2-carboxamide]
				< 0.1	N#Cc1ccnc(N2C(=O)CC[C@H]2C(=O)N(c2ccc3[nH]ccc3c2)[C@H](C(=O)NC2CC(F)(F)C2)c2ccccc2Cl)c1 [Compound 206, (S)—N—((S)-1-(2-Chlorophenyl)-2-((3,3-difluorocyclobutyl)amino)-2-oxoethyl)-1-(4-cyanopyridin-2-yl)-N-(1H-indol-5-yl)-5-oxopyrrolidine-2-carboxamide]
				< 0.1	N#Cc1ccnc(N2C(=O)CC[C@H]2C(=O)N(c2cccc3[nH]cnc23)C(C(=O)NC2CCC(F)(F)CC2)c2ccccc2Cl)c1 (stereo partly drawn) [Compound 141, (2S)—N-(1H-benzo[d]imidazol-7-yl)-N-(1-(2-chlorophenyl)-2-((4,4-difluorocyclohexyl)amino)-2-oxoethyl)-1-(4-cyanopyridin-2-yl)-5-oxopyrrolidine-2-carboxamide]

From patent US10689414B2 (Agios Pharmaceuticals, Inc., priority 2013, dated 2020)
